Measured values reported in US6586204B2, “Apoptosis gene EI24, compositions, and methods of use” (Apoptosis Technology, Inc., priority 1996, dated 2003).

How the values were obtained:
[1] = test system: 2.4 kb mRNA recognized by 11G10 (EI24); test: Northern blot of etoposide-treated 3T3 cells, 11G10 probe; conditions: 50 μM etoposide
EI24 mRNA = test: Northern blot of E1A/ras transformed murine embryonic fibroblasts, EI24 probe; type: cell-based
Method: (§1) Northern blot showing induction of EI24 RNA by p53 in E1A/ras transformed murine embryonic fibroblasts (MEFs). 1.0 μg of poly-A^+ RNA was loaded per lane. p53^+/+ and p53^−/− MEFs were left untreated, or treated with 50 μM etoposide for 6 hours, as indicated (lanes 1-4). Alternately, p53^−/− MEFs expressing either empty vector (pBabe Puro), or a tamoxifen-regulatable p53 (p53ER™) were left untreated, or treated with 3.3 μM tamoxifen (TMX) for 16 hours (lanes 5-8). The northern blot was hybridized sequentially with probes for EI24, p21/WAF1 and tubulin.
E1A and ras transformed mouse embryo fibroblasts and expression of the p53-ER™ fusion protein. Stable cell lines of p53^+/+ and p53^−/− MEFs expressing the oncogenes E1A and T24 H-ras were generated as described previously (Lowe S. W., Jacks T., Housman D. E. and Ruley H. E. (1994) Proc. Natl. Acad. Sci. USA, 91, 2026-2030). The plasmid for expression of the p53ER™ fusion protein, pBabe Puro p53ER™ G525R, using the retroviral vector pBabe Puro (Morgenstern J. P. and Land H. (1990) Nucl. Acids Res., 18, 3587-3596), was received as a generous gift from Trevor Littlewood (Imperial Cancer Research Fund, London). In brief, this plasmid contains the ˜1.3 kb BamHI fragment of human p53 from pSV53her (Roemer K. and Friedmann T. (1993) Proc. Natl. Acad. Sci. USA, 90, 9252-9256) fused to the ligand-binding domain of the murine estrogen receptor carrying a point mutation at amino acid 525 that renders the receptor unable to bind estradiol but able to bind tamoxifen or 4-hydroxy tamoxifen (Danielian P., White R., Hoare S., Fawell S. and Parker M. (1993) Mol Endocrinol, 7, 232-240; Littlewood T. D., Hancock D. C., Danielian P. S., Parker M. G. and Evan G. I. (1995) NAR, 23, 1686-1690). For induction of wild-type p53 activity, p53ER™ transfected p53^−/− cells were treated with […] tamoxifen (Sigma). […]

[2] = test system: 5 kb mRNA detected by 38T19 probe; test: Northern blot of etoposide-treated 3T3 cells, 38T19 probe; type: cell-based, Murine; conditions: 50 μM etoposide, 6 to 11 hours after treatment
Method: Induction of the 2.4 kb mRNA appeared to be maximal by 6 hours after etoposide exposure, representing a 7-fold increase. […] The levels of this mRNA were highest in untreated cells, and decreased at 6 to 11 hours after etoposide treatment, corresponding to a 4-fold reduction.

p21/WAF1 mRNA = test: Northern blot of E1A/ras transformed murine embryonic fibroblasts, p21/WAF1 probe; type: cell-based
Method: as §1
E1A and ras transformed mouse embryo fibroblasts and expression of the p53-ER™ fusion protein. Stable cell lines of p53^+/+ and p53^−/− MEFs expressing the oncogenes E1A and T24 H-ras were generated as described previously (Lowe S. W., Jacks T., Housman D. E. and Ruley H. E. (1994) Proc. Natl. Acad. Sci. USA, 91, 2026-2030). The plasmid for expression of the p53ER™ fusion protein, pBabe Puro p53ER™ G525R, using the retroviral vector pBabe Puro (Morgenstern J. P. and Land H. (1990) Nucl. Acids Res., 18, 3587-3596), was received as a generous gift from Trevor Littlewood (Imperial Cancer Research Fund, London). […]

NIH3T3 fibroblasts = test: Etoposide exposure of asynchronously growing NIH3T3 fibroblasts, cell killing and microscopic observation; type: cell-based, Murine; conditions: 50 μM etoposide

Compound | increase of 2.4 kb mRNA (EI24) ([1]; 3 hours post treatment) [fold] | increase of 2.4 kb mRNA (EI24), maximal induction ([1]; 6 hours after exposure) [fold] | induction of EI24 mRNA (EI24 mRNA; etoposide 50 μM, 6 hours, E1A/ras-transformed p53+/+ cells) | induction of EI24 mRNA (EI24 mRNA; etoposide 50 μM, 6 hours, E1A/ras-transformed p53−/− cells) | reduction of 5 kb mRNA [2] [fold] | induction of WAF1 RNA (p21/WAF1 mRNA; etoposide, p53−/− MEFs, maximal level lower than in p53+/+ cells) | signs of apoptosis by microscopic observation (NIH3T3 fibroblasts; for at least 6 hours following exposure) | cell killing (NIH3T3 fibroblasts; within 24 hours, asynchronously growing NIH3T3 cells) | induction of EI24 mRNA (EI24 mRNA; tamoxifen, p53−/− control cell line (pBabe Puro) with empty vector) | induction of WAF1 mRNA (p21/WAF1 mRNA; tamoxifen treatment, p53ER p53−/− cells)
COc1cc([C@@H]2c3cc4c(cc3[C@@H](O[C@@H]3O[C@@H]5CO[C@@H](C)O[C@H]5[C@H](O)[C@H]3O)[C@H]3COC(=O)[C@H]23)OCO4)cc(OC)c1O [etoposide, Etoposide] | 4 | 7 | further induced | No induction of EI24 | 4 | WAF1 RNA was induced | no obvious signs of apoptosis | kill the majority of asynchronously growing cells |  | 
CC/C(=C(\c1ccccc1)c1ccc(OCCN(C)C)cc1)c1ccccc1 [tamoxifen] |  |  |  |  |  |  |  |  | No EI24 induction | strongly induced
